Laboratory results published in ChEMBL document CHEMBL1137920, “Design and synthesis of 1-(4-benzoylphenyl)imidazole derivatives as new potent 20-HETE synthase inhibitors” (Bioorg Med Chem Lett, 2004).

How the values were obtained:
[1] = Inhibitory activity against 20-Hydroxy-5,8,11,14-eicosatetraenoic acid synthase from arachidonic acid in human renal microsome
[2] = Inhibitory activity against 20-Hydroxy-5,8,11,14-eicosatetraenoic acid synthase from arachidonic acid in rat renal microsome
[3] = Inhibitory activity against 20-Hydroxy-5,8,11,14-eicosatetraenoic acid synthase from arachidonic acid in human renal microsome

`Cc1cc(C(=O)c2ccc(-n3ccnc3)cc2)ccc1OCCCCCCCC(=O)O` showed an IC50 [1] of 44 nM.

`CS(=O)(=O)NC(=O)CCCCCCCCCC=C(Br)Br` showed an IC50 [2] of 2000 nM.

Work on `Cc1cc(C(=O)c2ccc(-n3ccnc3)cc2)ccc1OCCCCCC(=O)O` yielded an IC50 [1] of 7.9 nM.

Compound `C#CCCCCCCCCCOS(=O)(=O)O` has an IC50 [2] of 7500 nM.

`Cc1ccc(OCCCC(=O)O)c(C(=O)c2ccc(-n3ccnc3)cc2)c1` showed an IC50 [1] greater than 10000 nM.

`O=C(c1ccccc1)c1ccc(-n2ccnc2)cc1` showed an IC50 [2] of 310 nM.

`CCCCc1ccc(/N=C/NO)c(C)c1` gave an IC50 [2] of 35.2 nM.

`Cc1ccc(OCCCCCCCC(=O)O)c(C(=O)c2ccc(-n3ccnc3)cc2)c1` showed an IC50 [1] of 4800 nM.

For `Cc1cc(C(=O)c2ccc(-n3ccnc3)cc2)ccc1OCCCCC(=O)O`, the IC50 [1] was 12 nM.

Compound `Cc1ccc(OCCCCCCCCCC(=O)O)c(C(=O)c2ccc(-n3ccnc3)cc2)c1` has an IC50 [1] of 6740 nM.

`Cc1cc(C(=O)c2ccc(-n3ccnc3)cc2)ccc1OCCCCCCCCCC(=O)O` showed an IC50 [1] of 73 nM.

`O=C(O)CCCCCCCCCC=C(Br)Br` showed an IC50 [2] of 2000 nM.

Work on `C#CCCCCCCCCCCCCCCCC(=O)O` yielded an IC50 [2] greater than 5000 nM.

In the case of `Cc1ccc(OCCCCC(=O)O)c(C(=O)c2ccc(-n3ccnc3)cc2)c1`, the IC50 [1] is reported as 8380 nM.

Compound `Cc1ccc(OCCCCCCC(=O)O)c(C(=O)c2ccc(-n3ccnc3)cc2)c1` has an IC50 [1] of 2460 nM.

Work on `Cc1cc(C(=O)c2ccc(-n3ccnc3)cc2)ccc1OCCCCCCC(=O)O` yielded an IC50 [1] of 22 nM.

Compound `Cc1cc(C(=O)c2ccc(-n3ccnc3)cc2)ccc1OCCCC(=O)O` has an IC50 [3] of 13 nM.

`Cc1ccc(OCCCCCC(=O)O)c(C(=O)c2ccc(-n3ccnc3)cc2)c1` gave an IC50 [1] of 3290 nM.
